Experimental data: patent publication US9513294B2, “Megastokes amino-triazolyl-BODIPY compounds and applications to live neuron staining and human serum albumin FA1 drug site probing” (National University of Singapore, priority 2012, dated 2016)
One block for each molecule: values may come before it.

Experiments:
[1] = Absorbance and fluorescence emission spectra (SpectraMax M2); type: physicochemical; settings: for λmax Abs. (nm) / λmax Em. (nm): MKAC compound library; for λmax Abs. (nm) / λmax Absorp. (nm): absorbance maximum; for λmax Em. (nm) / λmax Emission (nm): fluorescence emission maximum; for λmax Absorp. (nm) / λmax Emission (nm): MKCA compound library
How it was run: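 Spectroscopic data, including quantum yields, were recorded with a SpectraMax M2 instrument and analysed in GraphPrism.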

[2] = Quantum yield measurements versus Acridine Yellow in EtOH; type: physicochemical; settings: for φ (%): quantum yield; for φ (quantum yield): excitation 460 nm
How it was run: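 Emission areas integrated over 510–700 nm were compared with Acridine Yellow in ethanol (Φ=0.47), all excited at 460 nm. The comparative equation was normalized to excitation-wavelength absorbance and solvent refractive index.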

Compound: CCCCCC(O)c1cn(-c2ccc3n2[B-](F)(F)[N+]2=C(N4CC(C)OC(C)C4)C=CC2=C3c2ccc(NC(C)=O)cc2)nn1 (stereo not drawn) [MKAC20-69]
λmax Abs. (nm) [1]: 469 nm
λmax Em. (nm) [1]: 590 nm
φ (%) ([2]; MKAC compound library): 2.23%

Compound: CC(=O)Nc1ccc(C2=C3C=CC(N4CCCCC4)=[N+]3[B-](F)(F)n3c2ccc3-n2cc(-c3ccc(C(C)(C)C)cc3)nn2)cc1 [BDCAC-11]
λmax Absorp. ([1]; BDCAC library, Table 3): 465 nm
λmax Emission ([1]; BDCAC library, Table 3): 582 nm
φ (quantum yield) ([2]; BDCAC library, Table 3): 1.4%

Compound: CCOc1ccccc1CNC1=[N+]2C(=C(c3ccc(N)cc3)c3ccc(-n4cc(CN(C)Cc5ccccc5)nn4)n3[B-]2(F)F)C=C1 [MK103-18]
λmax Absorp. ([1]; MK library, Table 5): 473 nm
λmax Emission ([1]; MK library, Table 5): 565 nm
φ (quantum yield) ([2]; MK library, Table 5): 1.19%

Compound: CCCC(C)c1cn(-c2ccc3n2[B-](F)(F)[N+]2=C(N4CCCCC4)C=CC2=C3c2ccc(NC(C)=O)cc2)nn1 (stereo not drawn) [BDCAC-3]
λmax Absorp. ([1]; BDCAC library, Table 3): 467 nm
λmax Emission ([1]; BDCAC library, Table 3): 585 nm
φ (quantum yield) ([2]; BDCAC library, Table 3): 1.5%

Compound: CCCc1cn(-c2ccc3n2[B-](F)(F)[N+]2=C(N4CC(C)OC(C)C4)C=CC2=C3c2ccc(NC(=O)CCl)cc2)nn1 (stereo not drawn) [MKCA20-48]
λmax Absorp. (nm) [1]: 466 nm
λmax Emission (nm) [1]: 569 nm
φ (%) ([2]; MKCA compound library): 4.88%

Compound: Nc1ccc(C2=C3C=CC(N4CCCC4)=[N+]3[B-](F)(F)n3c2ccc3-n2cc(CO)nn2)cc1 [MK215-70]
λmax Absorp. ([1]; MK library, Table 5): 471 nm
λmax Emission ([1]; MK library, Table 5): 595 nm
φ (quantum yield) ([2]; MK library, Table 5): 0.22%

Compound: CCCCCC(O)c1cn(-c2ccc3n2[B-](F)(F)[N+]2=C(N4CCc5ccccc5C4)C=CC2=C3c2ccc(N)cc2)nn1 (stereo not drawn) [MK66-69]
λmax Absorp. ([1]; MK library, Table 5): 480 nm
λmax Emission ([1]; MK library, Table 5): 583 nm
φ (quantum yield) ([2]; MK library, Table 5): 0.14%

Compound: CN(Cc1ccccc1)Cc1cn(-c2ccc3n2[B-](F)(F)[N+]2=C(N4CCCCC4)C=CC2=C3c2ccc(N)cc2)nn1 [BDC-18]
λmax Absorp. ([1]; BDC library, Table 2): 471 nm
λmax Emission ([1]; BDC library, Table 2): 580 nm
φ (quantum yield) ([2]; BDC library, Table 2): 0.18%

Compound: CC(C)Cc1cn(-c2ccc3n2[B-](F)(F)[N+]2=C(N4CCCCC4)C=CC2=C3c2ccc(N)cc2)nn1 [BDC-43]
λmax Absorp. ([1]; BDC library, Table 2): 476 nm
λmax Emission ([1]; BDC library, Table 2): 589 nm
φ (quantum yield) ([2]; BDC library, Table 2): 0.10%

Compound: CN(C)c1ccc(-c2cn(-c3ccc4n3[B-](F)(F)[N+]3=C(N5CCCCC5)C=CC3=C4c3ccc(N)cc3)nn2)cc1 [BDC-13]
λmax Absorp. ([1]; BDC library, Table 2): 475 nm
λmax Emission ([1]; BDC library, Table 2): 616 nm
φ (quantum yield) ([2]; BDC library, Table 2): 0.03%

Compound: CC(=O)Nc1ccc(C2=C3C=CC(N4CC(C)OC(C)C4)=[N+]3[B-](F)(F)n3c2ccc3-n2cc(CN(C)Cc3ccccc3)nn2)cc1 (stereo not drawn) [MKAC20-18]
λmax Abs. (nm) [1]: 467 nm
λmax Em. (nm) [1]: 583 nm
φ (%) ([2]; MKAC compound library): 2.13%

Compound: CCCCCC(O)c1cn(-c2ccc3n2[B-](F)(F)[N+]2=C(NCc4cc(F)cc(F)c4)C=CC2=C3c2ccc(NC(=O)CCl)cc2)nn1 (stereo not drawn) [MKCA412-69]
λmax Absorp. (nm) [1]: 465 nm
λmax Emission (nm) [1]: 562 nm
φ (%) ([2]; MKCA compound library): 30.05%

Compound: CC1CN(C2=[N+]3C(=C(c4ccc(N)cc4)c4ccc(-n5cc(CO)nn5)n4[B-]3(F)F)C=C2)CC(C)O1 (stereo not drawn) [MK20-70]
λmax Absorp. ([1]; MK library, Table 5): 479 nm
λmax Emission ([1]; MK library, Table 5): 584 nm
φ (quantum yield) ([2]; MK library, Table 5): 0.18%

Next, values leading:

λmax Absorp. ([1]; BDCCA library, Table 4): 463 nm
λmax Emission ([1]; BDCCA library, Table 4): 555 nm
φ (quantum yield) ([2]; BDCCA library, Table 4): 2.7%
Compound: Cc1cccc(-c2cn(-c3ccc4n3[B-](F)(F)[N+]3=C(N5CCCCC5)C=CC3=C4c3ccc(NC(=O)CCl)cc3)nn2)c1 [BDCCA-45]

λmax Abs. (nm) [1]: 464 nm
λmax Em. (nm) [1]: 563 nm
φ (%) ([2]; MKAC compound library): 10.37%
Compound: COc1ccc(OC)c(CNC2=[N+]3C(=C(c4ccc(NC(C)=O)cc4)c4ccc(-n5cc(C6CCCC6)nn5)n4[B-]3(F)F)C=C2)c1 [MKAC181-5]

λmax Absorp. (nm) [1]: 469 nm
λmax Emission (nm) [1]: 582 nm
φ (%) ([2]; MKCA compound library): 3.05%
Compound: O=C(CCl)Nc1ccc(C2=C3C=CC(N4CCc5ccccc5C4)=[N+]3[B-](F)(F)n3c2ccc3-n2cc(CC3CCCCC3)nn2)cc1 [MKCA66-8]

λmax Absorp. (nm) [1]: 466 nm
λmax Emission (nm) [1]: 563 nm
φ (%) ([2]; MKCA compound library): 31.53%
Compound: Cc1ccccc1CNC1=[N+]2C(=C(c3ccc(NC(=O)CCl)cc3)c3ccc(-n4cc(C5CCCC5)nn4)n3[B-]2(F)F)C=C1 [MKCA101-5]

λmax Absorp. (nm) [1]: 465 nm
λmax Emission (nm) [1]: 560 nm
φ (%) ([2]; MKCA compound library): 21.76%
Compound: Cc1ccccc1CNC1=[N+]2C(=C(c3ccc(NC(=O)CCl)cc3)c3ccc(-n4cc(CO)nn4)n3[B-]2(F)F)C=C1 [MKCA101-70]

λmax Absorp. (nm) [1]: 464 nm
λmax Emission (nm) [1]: 563 nm
φ (%) ([2]; MKCA compound library): 33.46%
Compound: CCOc1ccccc1CNC1=[N+]2C(=C(c3ccc(NC(=O)CCl)cc3)c3ccc(-n4cc(C5CCCC5)nn4)n3[B-]2(F)F)C=C1 [MKCA103-5]

λmax Abs. (nm) [1]: 465 nm
λmax Em. (nm) [1]: 560 nm
φ (%) ([2]; MKAC compound library): 18.63%
Compound: CCOc1ccccc1CNC1=[N+]2C(=C(c3ccc(NC(C)=O)cc3)c3ccc(-n4cc(CN(C)Cc5ccccc5)nn4)n3[B-]2(F)F)C=C1 [MKAC103-18]
